Consider one substance from US20080279957A1, “Immunomodulating compositions from bile” (Lorus Therapeutics Inc., priority 2000, published 2008).

In this series the test system is human peripheral blood mononuclear cells (PBMN). Briefly: Survival of PBMN, trypan blue dye exclusion. The settings on record: Patient. It is filed as cell-based. The text has this: At the end of this period, the number of surviving cells was estimated by trypan blue dye exclusion.
The mark [1] stands for this setting: second LPS section, LPS 1 μg/well, 24 hrs.
[2] abbreviates: second LPS section, LPS 1 μg/well, 48 hrs.
Where [3] appears, read: second LPS section, LPS 10 μg/well, 24 hrs.
Setting [4] is: second LPS section, LPS 10 μg/well, 48 hrs.

For Lipopolysaccharide [LPS], the “% viable” value runs as follows: (LPS 1 μg/well, 24 hrs) 43%; (LPS 1 μg/well, 48 hrs) 40%; (LPS 10 μg/well, 24 hrs) 36%; (LPS 10 μg/well, 48 hrs) 18%; under setting [1], 46%; under setting [2], 41%. For the same substance, the “% viable” value runs as follows: under setting [3], 12%; under setting [4], 12%. Also, the “No. of Live PBMN per Well by Trypan Blue” value (LPS 1 μg/well, 24 hrs) is given as 0.30 ×10^6; the “No. of Live PBMN per Well by Trypan Blue” value (LPS 1 μg/well, 48 hrs) is recorded as 0.28 ×10^6; the “No. of Live PBMN per Well by Trypan Blue” value (LPS 10 μg/well, 24 hrs) is 0.25 ×10^6; the “No. of Live PBMN per Well by Trypan Blue” value (LPS 10 μg/well, 48 hrs) was 0.13 ×10^6; the “No. of Live PBMN per Well by Trypan Blue” value under setting [1] is 0.60 ×10^6; the “No. of Live PBMN per Well by Trypan Blue” value under setting [2] is given as 0.53 ×10^6. For the same substance, the “No. of Live PBMN per Well by Trypan Blue” value is 0.15 ×10^6 under setting [3] and 0.15 ×10^6 under setting [4].
